Measurements from patent publication US20240279278A1, “NMU RECEPTOR 2 AGONISTS” (Boehringer Ingelheim International GmbH, priority 2023, published 2024).
Residues, ends and D or L forms follow the SMILES beside them.

molecular target: human NMUR2 receptor (Homo sapiens, UniProt Q9GZQ4); test: Radioligand binding competition assay (RLB), human NMUR2 receptor binding (SPA, [125I]-Neuromedin U-25); set-up: host or cells: CHO-K1; conditions: CHO-K1 hNMUR2 cell membranes, 4 hours at RT
Source text: Example 1: Radioligand Binding Competition Assay (RLB) Human NMUR2 Receptor Binding
The test is based on membranes prepared from a Human NMUR2/Apoaequorin Stable Cell Line (Creative Biogene, Cat. No. CSC-RG1309).
Cell Line Description: CHO-NMUR2 cell line is clonally derived from a CHO-K1 cell line, which has been transfected with a bicistronic expression plasmid containing the sequence coding for the human neuromedin U receptor 2 (AF242874.1). MOSAIC-ID: CL16550616.
Membrane preparation: Cells were broken by nitrogen cavitation (900 psi, 1 hour). Intact cells were removed by centrifugation (400 rcf (relative centrifugal force), 10 minutes, 4° C.) before the crude membrane fraction was collected by ultracentrifugation (20.000 rcf, 1 hour, 4° C.).
2) Human NMUR2 Receptor Binding Assay (Radioligand: [125I]-Neuromedin U-25 (Human))
In this Scintillation Proximity Assay (SPA) design, the membranes immobilize directly to the PVT-WGA-PEI type A beads (polyethyleneimine treated polyvinyltoluene beads coupled to wheatgerm agglutinin, Perkin Elmer) via interactions of wheat germ agglutinate and glycosylated membrane structures. Thereby the radioactively la-belled ligand, bound to NMUR2 receptors on the membrane, comes in close proximity to the solid scintillator of the PVT bead. Radioactive human neuromedin U-25 then stimulates the scintillant to emit light. In contrast, radioligand not bound to the receptor is too distant from the bead to elicit a signal.
For the Scintillation Proximity Assay the CHO-K1 hNMUR2 cell membranes and SPA-beads are diluted to concentrations, which assure a robust signal to background ratio. The SPA incubation buffer consists of 25 mM Hepes (pH=7.0), 5 mM MgCl2, 1 mM CaCl2, 10 ug/mL Saponine and 0.1% bovine serum albumin and is used for all dilutions.
Final assay setup in 96-well plate: 20 μL of 10× test compound dilutions+40 μL of 5× [125l]-Neuromedin U-25 (1× approx. 30 pM; 2000 μCi/mmol)+60 μL membrane dilution (approx. 2.5 μg membrane protein)+80 μL SPA bead dilution (0.75 mg).
The assay is incubated for 4 hours at RT, including controls for specific binding where no displacer is added and non-specific binding by adding unlabeled hNMU-25 at 100 nM. Bound radioactivity is determined by scintillation counting (MicroBeta Trilux 1450, Perkin Elmer, detection of 125I decay). […] The system assumes one binding site with no relevant radioligand depletion (<10%) and that the binding is reversible and at equilibrium.

Sequence of human NMUR2 receptor (Q9GZQ4 whole entry): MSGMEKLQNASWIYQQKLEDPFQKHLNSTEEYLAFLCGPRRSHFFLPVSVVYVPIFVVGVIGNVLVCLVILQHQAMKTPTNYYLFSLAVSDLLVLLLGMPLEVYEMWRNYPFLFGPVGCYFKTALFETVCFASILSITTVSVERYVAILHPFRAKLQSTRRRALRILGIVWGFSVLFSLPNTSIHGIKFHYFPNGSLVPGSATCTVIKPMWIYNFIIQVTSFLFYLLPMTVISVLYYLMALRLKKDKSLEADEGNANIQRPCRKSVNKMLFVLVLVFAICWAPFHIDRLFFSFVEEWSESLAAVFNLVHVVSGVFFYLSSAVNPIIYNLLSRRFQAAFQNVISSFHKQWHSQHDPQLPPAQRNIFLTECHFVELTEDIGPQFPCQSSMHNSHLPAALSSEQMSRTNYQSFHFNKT

Row | SMILES | Ki [nM]
1 | CCCC[C@H](NC(=O)[C@H](CC(C)C)N(C)C(=O)[C@H](Cc1ccccc1)NC(=O)[C@H](Cc1ccc(O)cc1)NC(=O)CN1CCN(CCNC(=O)CN(C)C(=O)CN(C)C(=O)CN(C)C(=O)CN(C)C(=O)CN(C)C(=O)CN(C)C(=O)CN(C)C(=O)CN(C)C(=O)CN(C)C(=O)CN(C)C(=O)CN(C)C(=O)CN(C)C(=O)CC[C@H](NC(=O)CC[C@H](NC(=O)CC[C@H](NC(=O)CCCCCCCCCCCCCCCCCCC(=O)O)C(=O)O)C(=O)O)C(=O)O)CC1)C(=O)N[C@@H](CCN)C(=O)N1CCC[C@H]1C(=O)N[C@@H](CCCNC(=N)N)C(=O)NCC(N)=O [Compound 8, C20DA-gGlu3-Sar12-AEPipAc-Tyr-Phe-NMeLeu-Nle-Dbu-Pro-Arg-Gly-NH2] | 89.1
2 | CCCC[C@H](NC(=O)[C@H](CC(C)C)N(C)C(=O)[C@H](Cc1ccccc1)NC(=O)[C@H](Cc1ccc(O)cc1)NC(=O)CN1CCN(CCNC(=O)CN(C)C(=O)CN(C)C(=O)CN(C)C(=O)CN(C)C(=O)CN(C)C(=O)CN(C)C(=O)CN(C)C(=O)CN(C)C(=O)CN(C)C(=O)CN(C)C(=O)CN(C)C(=O)CN(C)C(=O)CN(C)C(=O)CN(C)C(=O)CN(C)C(=O)CC[C@H](NC(=O)CC[C@H](NC(=O)CC[C@H](NC(=O)CCCCCCCCCCCCCCCCCCC(=O)O)C(=O)O)C(=O)O)C(=O)O)CC1)C(=O)N[C@@H](CCCNC(=N)N)C(=O)N1CCC[C@H]1C(=O)N[C@@H](CCCNC(=N)N)C(=O)NCC(N)=O [Compound 9, C20DA-gGlu3-Sar15-AEPipAc-Tyr-Phe-NMeLeu-Nle-Arg-Pro-Arg-Gly-NH2] (HELM PEPTIDE1{[O=C(O)CCCCCCCCCCCCCCCCCCC(=O)[*:2]].[gGlu].[gGlu].[gGlu].[Sar].[Sar].[Sar].[Sar].[Sar].[Sar].[Sar].[Sar].[Sar].[Sar].[Sar].[Sar].[Sar].[Sar].[Sar].[O=C(CN1CCN(CCN[*:1])CC1)[*:2]].Y.F.[meL].[Nle].R.P.R.G.[am]}$$$$V2.0) | 58.3
3 | CCCC[C@H](NC(=O)[C@H](CC(C)C)N(C)C(=O)[C@H](Cc1ccccc1)NC(=O)[C@H](Cc1ccc(O)cc1)NC(=O)CN1CCN(CCNC(=O)CN(C)C(=O)CN(C)C(=O)CN(C)C(=O)CN(C)C(=O)CN(C)C(=O)CN(C)C(=O)CN(C)C(=O)CN(C)C(=O)CN(C)C(=O)CN(C)C(=O)CN(C)C(=O)CN(C)C(=O)CC[C@H](NC(=O)CC[C@H](NC(=O)CC[C@H](NC(=O)CCCCCCCCCCCCCCCCCCC(=O)O)C(=O)O)C(=O)O)C(=O)O)CC1)C(=O)N[C@@H](CCCNC(=N)N)C(=O)N1CCC[C@H]1C(=O)N[C@@H](CCCNC(=N)N)C(=O)NCC(N)=O [Compound 6, C20DA-gGlu3-Sar12-AEPipAc-Tyr-Phe-NMeLeu-Nle-Arg-Pro-Arg-Gly-NH2] | 10.1
4 | CCCC[C@H](NC(=O)[C@H](CC(C)C)N(C)C(=O)[C@H](Cc1ccccc1)NC(=O)[C@H](Cc1ccc(O)cc1)NC(=O)CN1CCN(CCNC(=O)CN(C)C(=O)CN(C)C(=O)CN(C)C(=O)CN(C)C(=O)CN(C)C(=O)CN(C)C(=O)CN(C)C(=O)CN(C)C(=O)CN(C)C(=O)CC[C@H](NC(=O)CC[C@H](NC(=O)CC[C@H](NC(=O)CCCCCCCCCCCCCCCCCCC(=O)O)C(=O)O)C(=O)O)C(=O)O)CC1)C(=O)N[C@@H](CCCNC(=N)N)C(=O)N1CCC[C@H]1C(=O)N[C@@H](CCCNC(=N)N)C(=O)NCC(N)=O [Compound 65, C20DA-gGlu3-Sar9-AEPipAc-Tyr-Phe-NMeLeu-Nle-Arg-Pro-Arg-Gly-NH2] (HELM PEPTIDE1{[O=C(O)CCCCCCCCCCCCCCCCCCC(=O)[*:2]].[gGlu].[gGlu].[gGlu].[Sar].[Sar].[Sar].[Sar].[Sar].[Sar].[Sar].[Sar].[Sar].[O=C(CN1CCN(CCN[*:1])CC1)[*:2]].Y.F.[meL].[Nle].R.P.R.G.[am]}$$$$V2.0) | 25.3
